Data taken from patent US7642245B2, “Antibacterial compounds having a (pyrrole carboxamide)-(benzamide)-(imidazole carboxamide) motif” (Oscient Pharmaceuticals Corporation, priority 2002, dated 2010).

Tests used:
[1] = test system: B. cereus ATCC 11778; test: MIC, NCCLS broth microdilution; type: cell-based, Bacillus cereus; conditions: D = B. cereus ATCC 11778
Outline: (§1)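 Antibacterial MICs against B. cereus, methicillin-resistant S. aureus and M. catarrhalis were measured by the NCCLS reference broth microdilution method. Yeast testing applied the Manual of Clinical Microbiology antifungal protocol.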

[2] = test system: E. faecalis ATCC 29212; test: MIC, NCCLS broth microdilution; type: cell-based, Enterococcus faecalis; conditions: C = E. faecalis ATCC 29212
Outline: (§2)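 MIC values come from microtiter-plate broth microdilution run to NCCLS standards (M7-A4, M11-A4, M27-T). For C. albicans ATCC 38247, the antifungal procedure of the 1995 Manual of Clinical Microbiology was used instead.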

[3] = test system: S. aureus ATCC 13709; test: MIC, NCCLS broth microdilution; type: cell-based, Staphylococcus aureus; conditions: A = S. aureus ATCC 13709 (MSSA)
Outline: as §2

[4] = test system: S. aureus ATCC 27660; test: MIC, NCCLS broth microdilution; type: cell-based, Staphylococcus aureus; conditions: B = S. aureus ATCC 27660 (MRSA)
Outline: as §1

[5] = test system: M. catarrhalis (ATCC 25238); test: MIC, NCCLS broth microdilution; type: cell-based, Moraxella (now Branhamella) catarrhalis; conditions: H = M. catarrhalis (ATCC 25238)
Outline: as §1

[6] = test system: C. albicans ATCC 38247; test: MIC, antifungal assay; type: cell-based, Candida albicans; conditions: F = C. albicans ATCC 38247
Outline: as §1

[7] = test system: S. pneumoniae ATCC 49619; test: MIC, NCCLS broth microdilution; type: cell-based, Streptococcus pneumoniae; conditions: E = S. pneumoniae ATCC 49619
Outline: as §2

[8] = test system: E. coli ATCC 25922; test: MIC, NCCLS broth microdilution; type: cell-based, Escherichia coli; conditions: G = E. coli ATCC 25922
Outline: as §2

Minimum Inhibitory Concentration (MIC) [1]	Minimum Inhibitory Concentration (MIC) [2]	Minimum Inhibitory Concentration (MIC) [3]	Minimum Inhibitory Concentration (MIC) [4]	Minimum Inhibitory Concentration (MIC) [5]	Minimum Inhibitory Concentration (MIC) [6]	Minimum Inhibitory Concentration (MIC) [7]	Minimum Inhibitory Concentration (MIC) [8]	Structure (SMILES)
++ (4 < MIC < 12 μg/mL)	+++ (MIC ≦ 4 μg/mL)	+++ (MIC ≦ 4 μg/mL)	+++ (MIC ≦ 4 μg/mL)	>32 µg/mL	+ (12 ≦ MIC ≦ 32 μg/mL)	+ (12 ≦ MIC ≦ 32 μg/mL)	>32 µg/mL	Cn1cc(NC(=O)c2cc3ccccc3cn2)cc1C(=O)Nc1ccc(C(=O)Nc2cn(C)c(C(=O)NCCNCCOCCOCCN)n2)cc1 [Compound A-42]
+++ (MIC ≦ 4 μg/mL)	+++ (MIC ≦ 4 μg/mL)	+++ (MIC ≦ 4 μg/mL)	+++ (MIC ≦ 4 μg/mL)	+++ (MIC ≦ 4 μg/mL)	>32 µg/mL	+++ (MIC ≦ 4 μg/mL)	>32 µg/mL	Cn1cc(NC(=O)c2cc3ccccc3cn2)cc1C(=O)Nc1ccc(C(=O)Nc2cn(C)c(C(=O)NCCN3CCN(CCOC(=O)CNC(=O)OC(C)(C)C)CC3)n2)cc1 [Compound A-61]
+++ (MIC ≦ 4 μg/mL)	+++ (MIC ≦ 4 μg/mL)	+++ (MIC ≦ 4 μg/mL)	+++ (MIC ≦ 4 μg/mL)	+++ (MIC ≦ 4 μg/mL)	++ (4 < MIC < 12 μg/mL)	+++ (MIC ≦ 4 μg/mL)	+ (12 ≦ MIC ≦ 32 μg/mL)	Cn1cc(NC(=O)c2cc3ccccc3cn2)cc1C(=O)Nc1ccc(C(=O)Nc2cn(C)c(C(=O)NCCN3CCC(OC(=O)CN)CC3)n2)cc1 [Compound A-67]
+++ (MIC ≦ 4 μg/mL)	+++ (MIC ≦ 4 μg/mL)	+++ (MIC ≦ 4 μg/mL)	+++ (MIC ≦ 4 μg/mL)	>32 µg/mL	>32 µg/mL	+++ (MIC ≦ 4 μg/mL)	>32 µg/mL	Cn1cc(NC(=O)c2cc3ccccc3cn2)cc1C(=O)Nc1ccc(C(=O)Nc2cn(C)c(C(=O)NCCN3CCN(CCOC(=O)CNS(=O)(=O)O)CC3)n2)cc1 [Compound A-73]
+++ (MIC ≦ 4 μg/mL)	+++ (MIC ≦ 4 μg/mL)	+++ (MIC ≦ 4 μg/mL)	+++ (MIC ≦ 4 μg/mL)	>32 µg/mL	>32 µg/mL	+++ (MIC ≦ 4 μg/mL)	>32 µg/mL	Cn1cc(NC(=O)c2cc3ccccc3cn2)cc1C(=O)Nc1ccc(C(=O)Nc2cn(C)c(C(=O)NCCN3CCC(OC(=O)CNC(=O)C4OC(O)C(O)C(O)C4O)CC3)n2)cc1 (stereo not drawn) [Compound A-74]
+++ (MIC ≦ 4 μg/mL)	+++ (MIC ≦ 4 μg/mL)	+++ (MIC ≦ 4 μg/mL)	+++ (MIC ≦ 4 μg/mL)	>32 µg/mL	>32 µg/mL	+++ (MIC ≦ 4 μg/mL)	+++ (MIC ≦ 4 μg/mL)	Cn1cc(NC(=O)c2cc3ccccc3cn2)cc1C(=O)Nc1ccc(C(=O)Nc2cn(C)c(C(=O)NCCNCCCCCO)n2)cc1 [Compound A-33]
+++ (MIC ≦ 4 μg/mL)	+++ (MIC ≦ 4 μg/mL)	+++ (MIC ≦ 4 μg/mL)	+++ (MIC ≦ 4 μg/mL)	+ (12 ≦ MIC ≦ 32 μg/mL)	>32 µg/mL	+++ (MIC ≦ 4 μg/mL)	>32 µg/mL	Cn1cc(NC(=O)c2sccc2Cl)cc1C(=O)Nc1ccc(C(=O)Nc2cn(C)c(C(=O)NCCN3CCC(O)CC3)n2)cc1 [Compound A-1]
+++ (MIC ≦ 4 μg/mL)	+++ (MIC ≦ 4 μg/mL)	+++ (MIC ≦ 4 μg/mL)	+++ (MIC ≦ 4 μg/mL)	++ (4 < MIC < 12 μg/mL)	>32 µg/mL	+++ (MIC ≦ 4 μg/mL)	>32 µg/mL	Cn1cc(NC(=O)c2sc3ccccc3c2Cl)cc1C(=O)Nc1ccc(C(=O)Nc2cn(C)c(C(=O)NCCN3CCC(O)CC3)n2)cc1 [Compound A-3]
+++ (MIC ≦ 4 μg/mL)	+++ (MIC ≦ 4 μg/mL)	+++ (MIC ≦ 4 μg/mL)	+++ (MIC ≦ 4 μg/mL)	+++ (MIC ≦ 4 μg/mL)	>32 µg/mL	+++ (MIC ≦ 4 μg/mL)	>32 µg/mL	Cn1cc(NC(=O)c2cc3ccccc3cn2)cc1C(=O)Nc1ccc(C(=O)Nc2cn(C)c(C(=O)NCCN3CCC(OC(=O)CNC(=O)OC(C)(C)C)CC3)n2)cc1 [Compound A-66]
+ (12 ≦ MIC ≦ 32 μg/mL)	++ (4 < MIC < 12 μg/mL)	+++ (MIC ≦ 4 μg/mL)	+++ (MIC ≦ 4 μg/mL)	>32 µg/mL	>32 µg/mL	+++ (MIC ≦ 4 μg/mL)	>32 µg/mL	Cn1cc(NC(=O)c2cc3ccccc3cn2)cc1C(=O)Nc1ccc(C(=O)Nc2cn(C)c(C(=O)NCCNC(CO)CO)n2)cc1 [Compound A-50]
+++ (MIC ≦ 4 μg/mL)	+++ (MIC ≦ 4 μg/mL)	+++ (MIC ≦ 4 μg/mL)	+++ (MIC ≦ 4 μg/mL)	+++ (MIC ≦ 4 μg/mL)	>32 µg/mL	+++ (MIC ≦ 4 μg/mL)	>32 µg/mL	CC(C)N1CCN(CCC(=O)OC2CCN(CCNC(=O)c3nc(NC(=O)c4ccc(NC(=O)c5cc(NC(=O)c6cc7ccccc7cn6)cn5C)cc4)cn3C)CC2)CC1 [Compound A-53]
+++ (MIC ≦ 4 μg/mL)	+++ (MIC ≦ 4 μg/mL)	+++ (MIC ≦ 4 μg/mL)	+++ (MIC ≦ 4 μg/mL)	+++ (MIC ≦ 4 μg/mL)	>32 µg/mL	+++ (MIC ≦ 4 μg/mL)	>32 µg/mL	CCN(CCNC(=O)c1nc(NC(=O)c2ccc(NC(=O)c3cc(NC(=O)c4cc5ccccc5cn4)cn3C)cc2)cn1C)CCOC [Compound A-21]
+++ (MIC ≦ 4 μg/mL)	+++ (MIC ≦ 4 μg/mL)	+++ (MIC ≦ 4 μg/mL)	+++ (MIC ≦ 4 μg/mL)	+++ (MIC ≦ 4 μg/mL)	>32 µg/mL	+++ (MIC ≦ 4 μg/mL)	>32 µg/mL	CCN(CCO)CCNC(=O)c1nc(NC(=O)c2ccc(NC(=O)c3cc(NC(=O)c4cc5ccccc5cn4)cn3C)cc2)cn1C [Compound A-32]
+++ (MIC ≦ 4 μg/mL)	+++ (MIC ≦ 4 μg/mL)	+++ (MIC ≦ 4 μg/mL)	+++ (MIC ≦ 4 μg/mL)	+++ (MIC ≦ 4 μg/mL)	>32 µg/mL	+++ (MIC ≦ 4 μg/mL)	+++ (MIC ≦ 4 μg/mL)	Cn1cc(NC(=O)c2cc3ccccc3cn2)cc1C(=O)Nc1ccc(C(=O)Nc2cn(C)c(C(=O)NCCNCC3CC3)n2)cc1 [Compound A-34]
+++ (MIC ≦ 4 μg/mL)	+++ (MIC ≦ 4 μg/mL)	+++ (MIC ≦ 4 μg/mL)	+++ (MIC ≦ 4 μg/mL)	+++ (MIC ≦ 4 μg/mL)	++ (4 < MIC < 12 μg/mL)	+++ (MIC ≦ 4 μg/mL)	>32 µg/mL	Cn1cc(NC(=O)c2cc3ccccc3cn2)cc1C(=O)Nc1ccc(C(=O)Nc2cn(C)c(C(=O)NCCN3CCN(C(=O)CN)CC3)n2)cc1 [Compound A-65]
